The values that follow come from ChEMBL document CHEMBL6103662, “Thiosulfonate-Based Targeted Covalent Cruzipain Inhibitors with Enhanced Bioactivity Translation for Antichagasic Therapy” (ACS Med Chem Lett, 2025).

Data set [1] has as its target cathepsin L (Homo sapiens, UniProt P07711). Briefly: Inhibition of recombinant human cathepsin L at 100 uM using Z-FR-AMC as substrate preincubated for 10 mins followed by substrate addition and measured for 20 mins by fluorimetry relative to control. The following applies: probe Z-FR-AMC, time 30 min.
The target of data set [2] is Cruzipain (Trypanosoma cruzi) (UniProt P25779). The data set is described as follows: Inhibition of recombinant Trypanosoma cruzi Cruzain at 100 uM using Z-FR-AMC as substrate measured at 5 secs interval for 10 mins by fluorimetry relative to control.
Chain of Cruzipain (Trypanosoma cruzi) (P25779 123-467 limits assumed): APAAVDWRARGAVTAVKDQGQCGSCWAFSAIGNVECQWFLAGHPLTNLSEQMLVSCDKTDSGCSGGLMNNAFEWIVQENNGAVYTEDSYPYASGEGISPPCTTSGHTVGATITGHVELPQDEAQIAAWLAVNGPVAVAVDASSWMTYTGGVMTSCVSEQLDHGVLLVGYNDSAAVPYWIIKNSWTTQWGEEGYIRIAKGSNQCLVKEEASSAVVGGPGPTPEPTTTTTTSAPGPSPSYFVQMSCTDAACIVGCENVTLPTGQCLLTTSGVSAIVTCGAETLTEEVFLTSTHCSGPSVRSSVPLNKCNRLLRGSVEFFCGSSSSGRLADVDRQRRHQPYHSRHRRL
For data set [3], the system named is Trypanosoma cruzi. The data set is described as follows: Antitrypanosomal activity against Trypanosoma cruzi Tulahuen trypomastigotes expressing Escherichia coli beta-galactosidase infected in Vero cells at 50 uM measured after 72 hrs by beta-galactosidase based assay relative to control. The data set is classed as functional.
Data set [4] has as its target Cruzipain (Trypanosoma cruzi, UniProt P25779). Briefly: Inhibition of recombinant Trypanosoma cruzi Cruzain using Z-FR-AMC as substrate preincubated for 10 mins followed by substrate addition and measured at 5 secs interval for 10 mins by fluorimetry.
Data set [5] relates to Trypanosoma cruzi. Briefly: Antitrypanosomal activity against Trypanosoma cruzi Tulahuen trypomastigotes expressing Escherichia coli beta-galactosidase infected in Vero cells at 10 uM measured after 72 hrs by beta-galactosidase based assay relative to control. The data set is classed as functional.
In data set [6] the target is Cruzipain (Trypanosoma cruzi) (UniProt P25779). The data set is described as follows: Inhibition of recombinant Trypanosoma cruzi Cruzain at 10 x IC50 using Z-FR-AMC as substrate preincubated for 30 mins followed by 100-fold dilution with assay buffer containing substrate and measured up to 15 mins by fluorescence based jump dilution assay. Particulars: time 45.0 min.

The target is the same in data set [7]. The data set is described as follows: Reversible inhibition of recombinant Trypanosoma cruzi Cruzain assessed as recovery of enzyme activity at 10 x IC50 using Z-FR-AMC as substrate preincubated for 30 mins followed by 100-fold dilution with assay buffer containing substrate and measured after 15 to 120 mins by fluorescence based jump dilution assay. Particulars: time 150.0 min.

Data set [8] has the same target. Briefly: Inhibition of recombinant Trypanosoma cruzi Cruzain at 100 uM using Z-FR-AMC as substrate preincubated for 10 mins followed by substrate addition and measured at 5 secs interval for 10 mins by fluorimetry relative to control. Particulars: time 20.0 min.
The test system of data set [9] is Trypanosoma cruzi. Briefly: Antitrypanosomal activity against Trypanosoma cruzi Tulahuen trypomastigotes expressing Escherichia coli beta-galactosidase infected in Vero cells at 1 uM measured after 72 hrs by beta-galactosidase based assay relative to control. It counts as functional.
Data set [10] in a line: Cytotoxicity against African green monkey Vero cells assessed as cell viability at 50 uM measured after 96 hrs by Alamar blue assay relative to control. The data set is classed as toxicity, cell-based. Particulars: chlorocebus sabaeus, read-out: Activity. For orientation: The colour change of resazurin is a common sign of viable cells or microbes.
Data set [11] relates to Trypanosoma cruzi. The data set is described as follows: Antitrypanosomal activity against Trypanosoma cruzi Tulahuen trypomastigotes expressing Escherichia coli beta-galactosidase infected in Vero cells measured after 72 hrs by beta-galactosidase based assay. The data set is classed as functional, organism-based.
Data set [12] relates to Trypanosoma cruzi. The data set is described as follows: Trypanocidal activity against Trypanosoma cruzi. The data set is classed as functional, organism-based.

Activity calls are given as the source filed them. The calls are words filed in the database; no cut-off is given here.

Chain of Cruzipain (P25779 whole entry): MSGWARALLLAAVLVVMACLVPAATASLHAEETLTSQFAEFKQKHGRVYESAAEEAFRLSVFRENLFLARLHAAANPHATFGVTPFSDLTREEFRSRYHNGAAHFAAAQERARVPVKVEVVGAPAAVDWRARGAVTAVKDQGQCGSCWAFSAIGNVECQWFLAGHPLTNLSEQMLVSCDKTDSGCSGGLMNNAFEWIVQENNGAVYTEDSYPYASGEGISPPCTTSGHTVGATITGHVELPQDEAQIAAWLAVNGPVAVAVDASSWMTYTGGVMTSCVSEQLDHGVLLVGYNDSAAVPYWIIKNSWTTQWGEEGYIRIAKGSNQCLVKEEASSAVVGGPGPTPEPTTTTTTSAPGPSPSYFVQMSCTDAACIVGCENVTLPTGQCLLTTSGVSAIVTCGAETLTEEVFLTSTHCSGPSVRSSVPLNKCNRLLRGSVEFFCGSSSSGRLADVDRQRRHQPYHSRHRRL
Chain of cathepsin L (P07711 whole entry): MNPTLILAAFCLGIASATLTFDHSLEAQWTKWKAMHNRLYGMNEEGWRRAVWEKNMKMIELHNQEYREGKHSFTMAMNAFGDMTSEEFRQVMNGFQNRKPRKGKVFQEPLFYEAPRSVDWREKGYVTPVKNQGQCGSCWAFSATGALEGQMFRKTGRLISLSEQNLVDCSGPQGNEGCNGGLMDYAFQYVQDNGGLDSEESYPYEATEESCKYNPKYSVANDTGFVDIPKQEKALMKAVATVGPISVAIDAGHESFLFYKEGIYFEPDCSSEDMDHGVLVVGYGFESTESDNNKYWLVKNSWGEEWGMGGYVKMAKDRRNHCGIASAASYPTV

As a reminder, the inhibition is the share of the control response that was lost under treatment. In general, IC50 refers to the concentration at which inhibition is half-maximal. For `CCOC(=O)[C@H](CSS(=O)(=O)c1ccccc1)n1cc(C(NCc2ccc3c(c2)OCO3)C2CCCCC2)nn1` (stereo partly drawn), in data set [1], the inhibition at 20 min, 100 µM was 47%. The inhibition is 39% in data set [2], “Active; Showed Near-Zero Slope” in data set [6], “Active; Gradual Recovery Of Enzyme Activity Observed” in data set [7] and 92% in [8]. Further, the inhibition at 50 µM in data set [3] was 100%. Further, the IC50 in data set [4] stood at 2.7 µM. Besides, testing at 10 µM in data set [5] gave an inhibition of 96%. In data set [9], the inhibition at 1 µM came to 14%. Further, in data set [10], the viability at 96 h, 50 µM is 87%.

For `O=C(O)[C@H](CSS(=O)(=O)c1ccccc1)n1cc(C(C2CCCCC2)N2CCc3ccccc3C2)nn1` (stereo partly drawn), in data set [8], the inhibition was 28%.

`CC(C)[C@H](CSS(=O)(=O)c1ccccc1)n1cc(C(NCc2ccc3c(c2)OCO3)C2CCCCC2)nn1` (stereo partly drawn): the inhibition at 20 min, 100 µM in data set [1] came to 0%. In addition, the inhibition came to 20% in data set [2] and 73% in data set [8]. Also, the inhibition at 50 µM in data set [3] is 100%. The IC50 in data set [4] amounted to 4 µM; in data set [11] it was 7.8 µM. Besides, 10 µM produced 93% inhibition in data set [5]. Besides, the inhibition result in [7] is “Active”. Also, the viability at 96 h, 50 µM in [10] was found to be 75%.

As to `CCOC(=O)[C@H](CSS(=O)(=O)c1ccccc1)n1cc(C(C2CCCCC2)N2CCc3ccccc3C2)nn1` (stereo partly drawn), the inhibition at 20 min, 100 µM in [1] came out at 8%. The compound further displayed an inhibition at 50 µM in data set [3] of 91%. The IC50 in [4] was found to be 13.7 µM. Also, in data set [5], the inhibition at 10 µM amounted to 77%. For the same compound, the inhibition in data set [8] was determined as 80%. The same compound displayed an inhibition at 1 µM in [9] of 0%. Also, the viability at 96 h, 50 µM in [10] amounted to 87%.

For the compound `O=S(=O)(SC[C@@H](Cc1ccccc1)n1cc(C(NCc2ccc3c(c2)OCO3)C2CCCCC2)nn1)c1ccccc1` (stereo partly drawn), in [1], the inhibition at 20 min, 100 µM was determined as 13%. In addition, the inhibition in data set [2] turned out to be 39%; in data set [8], 86%. Testing at 50 µM in data set [3] gave an inhibition of 99.9%. In addition, the IC50 in data set [4] came to 2.2 µM; in data set [11] it was 1.9 µM. In data set [5], this compound returned an inhibition at 10 µM of 91%. The inhibition entry in [7] was “Active”. Besides, the viability at 96 h, 50 µM in data set [10] was found to be 100%.

Take `CCC(CC)C(NCc1ccc2c(c1)OCO2)c1cn([C@@H](CSS(=O)(=O)c2ccccc2)C(=O)O)nn1` (stereo partly drawn): in data set [8], the inhibition was 33%.

In the case of `CCOC(=O)[C@H](CSS(=O)(=O)c1ccccc1)n1cc(C(NCc2ccc3c(c2)OCO3)C(CC)CC)nn1` (stereo partly drawn), the inhibition at 20 min, 100 µM in [1] came to 2%. This compound displayed an inhibition at 50 µM in [3] of 97%. For the same compound, the IC50 in [4] was 24 µM. In addition, 10 µM produced 91% inhibition in data set [5]. Further, the inhibition in data set [8] is 56%. In data set [9], this compound showed an inhibition at 1 µM of 0%. Besides, in data set [10], the viability at 96 h, 50 µM stood at 70%.

Turning to `COC(=O)[C@H](CSS(=O)(=O)c1ccccc1)n1cc(C(NCc2ccc3c(c2)OCO3)C2CCCC2)nn1` (stereo partly drawn), the inhibition at 20 min, 100 µM in [1] was 23%. Moreover, in data set [3], testing at 50 µM gave an inhibition of 98%. Also, the IC50 in [4] is 9.7 µM. Also, the inhibition at 10 µM in [5] is 88%. For the same compound, the inhibition in [8] was determined as 90%. In data set [9], this compound had an inhibition at 1 µM of 2%. Further, the viability at 96 h, 50 µM in [10] worked out at 53%.

As to `COc1ccc(COC(=O)[C@H](CSS(=O)(=O)c2ccccc2)n2cc(C(NCc3ccc4c(c3)OCO4)C3CCCCC3)nn2)cc1` (stereo partly drawn), the inhibition at 20 min, 100 µM in [1] is 16%. Moreover, the inhibition in [2] amounted to 7%; in [8], 50%. Also, the inhibition at 50 µM in data set [3] was 5%. Moreover, in data set [10], the viability at 96 h, 50 µM was determined as 97%.

On to `O=C(O)[C@H](CSS(=O)(=O)c1ccccc1)n1cc(C(NCc2ccc3c(c2)OCO3)C2CCCCC2)nn1` (stereo partly drawn), for which the inhibition in data set [8] turned out to be 41%.

With `CCOC(=O)[C@H](Cc1ccccc1)n1cc(C(NCc2ccc3c(c2)OCO3)C2CCCCC2)nn1` (stereo partly drawn), the inhibition in data set [8] was determined as 15%.

On to `O=C(Cn1ccnc1[N+](=O)[O-])NCc1ccccc1` [BENZNIDAZOLE], for which the IC50 in [12] was 1.45 µM.

With `COC(=O)[C@H](CSS(=O)(=O)c1ccccc1)n1cc(C(NCc2ccc3c(c2)OCO3)C2CCCCC2)nn1` (stereo partly drawn), the inhibition at 20 min, 100 µM in data set [1] came out at 55%. In addition, the inhibition in data set [2] amounted to 55%; in data set [8] it was 83%. In data set [3], this compound gave an inhibition at 50 µM of 100%. Besides, the IC50 in data set [4] came to 12 µM. In data set [5], the inhibition at 10 µM is 90%. The compound also showed an inhibition at 1 µM in [9] of 3%. Moreover, the viability at 96 h, 50 µM in data set [10] is 82%.

Turning to `CCCCC(NCc1ccc2c(c1)OCO2)c1cn([C@@H](CSS(=O)(=O)c2ccccc2)C(=O)OCC)nn1` (stereo partly drawn), the inhibition at 20 min, 100 µM in data set [1] came out at 84%. Further, in data set [3], the inhibition at 50 µM was determined as 97%. In addition, in [4], the IC50 turned out to be 3.2 µM. The compound further displayed an inhibition at 10 µM in data set [5] of 83%. Moreover, the inhibition in [8] is 92%. In addition, 1 µM produced 10.7% inhibition in data set [9]. Further, in [10], the viability at 96 h, 50 µM was found to be 63%.

For `CCCCC(c1cn([C@@H](CSS(=O)(=O)c2ccccc2)C(=O)OCC)nn1)N1CCc2ccccc2C1` (stereo partly drawn), the inhibition at 20 min, 100 µM in data set [1] was determined as 0%. This compound showed an inhibition at 50 µM in data set [3] of 91.7%. In addition, the IC50 in data set [4] worked out at 25 µM. Further, the inhibition at 10 µM in data set [5] was 31%. Further, the inhibition in data set [8] came to 76%. Also, the viability at 96 h, 50 µM in data set [10] amounted to 82%.

In the case of `O=C[C@H](Cc1ccccc1)n1cc(C(NCc2ccc3c(c2)OCO3)C2CCCCC2)nn1` (stereo partly drawn), the inhibition at 50 µM in data set [3] was determined as 10%. In data set [4], the IC50 stood at 41 µM. Besides, the inhibition in data set [8] worked out at 64%.
